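Results reflect a 48-hour exposure of cells in 96-well plates to compound at five concentrations. Here, GI50 denotes the concentration required for 50% inhibition of growth.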 The source made the active and inactive calls. No stated cut-off is given here; in the data, active = GI50 up to about 1.1 µM and inactive = higher. Non-standard residues stand in square brackets, D forms with d. Residues, ends and D or L forms follow the SMILES beside them. ξ: configuration not given here. *: point of attachment. NMeF = CN[C@@H](Cc1ccccc1)C(=O)O; NMeV = CN[C@H](C(=O)O)C(C)C; ξNMeV = CNC(C(=O)O)C(C)C; Boc = CC(C)(C)OC(=O)*; OBn = c1ccc(CO*)cc1
Assays:
Assay in all cases: DTP human tumour cell line panel, 48 h
DLD-1 = test system: DLD-1
DMS-114 = test system: DMS-114
DMS-273 = test system: DMS-273
HOP-18 = test system: HOP-18
KM-20L2 = test system: KM-20L2
LXFL 529 = test system: LXFL 529
M19-MEL = test system: M19-MEL
XF498 = test system: XF498
RXF 631 = test system: RXF 631

Measured: GI50

Cc1ccc(C2C(Cl)C(=O)N2n2cnc3ccccc3c2=O)cc1 (stereo not given)
inactive: DLD-1 > 100 µM | DMS-114 > 100 µM | DMS-273 > 100 µM | HOP-18 18.1 µM | KM-20L2 > 100 µM | LXFL 529 > 100 µM | M19-MEL > 100 µM | XF498 > 100 µM

O=NN(CCCl)C(=O)N[C@H]1CC[C@@H](CC(=O)O)CC1
inactive: DLD-1 > 100 µM | DMS-114 > 100 µM | DMS-273 > 100 µM | HOP-18 > 100 µM | KM-20L2 > 100 µM | M19-MEL > 100 µM | XF498 > 100 µM

O=C(c1ccccc1)c1ccc2cccc(OC3OC(CO)C(O)C(O)C3O)c2n1 (stereo not given)
inactive: DLD-1 > 100 µM | DMS-114 > 100 µM | DMS-273 > 100 µM | HOP-18 > 100 µM | KM-20L2 > 100 µM | LXFL 529 > 100 µM | XF498 > 100 µM

COc1ccc(C2S/C(=C\c3ccc(O)cc3)C(=O)N2NC(=O)Cc2ccccc2)cc1 (stereo not given)
inactive: DLD-1 > 100 µM | DMS-114 > 100 µM | DMS-273 > 100 µM | HOP-18 > 100 µM | LXFL 529 > 100 µM | M19-MEL > 100 µM

CCNC1=Nc2ccccc2-n2c(nn3nc4ccccc4c23)N1CC
inactive: DLD-1 > 100 µM | DMS-114 89.3 µM | DMS-273 > 100 µM | HOP-18 > 100 µM | KM-20L2 > 100 µM | LXFL 529 > 100 µM | M19-MEL > 100 µM

CC1OC(OCC2OC(Oc3c(-c4ccc(O)cc4)oc4cc(O)cc(O)c4c3=O)C(OC3OC(C)C(O)C(O)C3O)C(O)C2O)C(O)C(O)C1O (stereo not given)
inactive: DLD-1 > 100 µM | DMS-114 > 53.7 µM | DMS-273 > 84.1 µM | HOP-18 > 100 µM | KM-20L2 > 100 µM | LXFL 529 > 100 µM | M19-MEL > 72.4 µM | RXF 631 > 100 µM | XF498 > 100 µM

C[C@@H]1CC2(C[C@@H](C)C3[C@@H](CC4(C)CCCC5C6=CC(O)(CC[C@]34C)OC6=CC(=O)OC5(C)C)O2)OC1=O (stereo not given in full)
inactive: DLD-1 > 100 µM | DMS-114 > 100 µM | DMS-273 > 100 µM | HOP-18 > 100 µM | LXFL 529 > 100 µM | XF498 > 100 µM

COc1cc(C2c3cc4c(cc3[C@@H](Nc3ccc(C(=O)O)cc3)C3COC(=O)[C@H]23)OCO4)cc(OC)c1O (stereo not given in full)
inactive: DMS-273 7.16 µM | LXFL 529 11 µM | M19-MEL 15.7 µM

CC(C)C(C(=O)N(C)[C@H](C(=O)N1CCC[C@H]1C(=O)N(C)[C@@H](Cc1ccccc1)C(=O)OCc1ccccc1)C(C)C)N(C)C(=O)[C@@H](NC(=O)OC(C)(C)C)C(C)C (stereo not given in full) (Boc-V[ξNMeV][NMeV]P[NMeF]-OBn)
inactive: DLD-1 24.9 µM | DMS-114 11 µM | DMS-273 5.48 µM | HOP-18 32.1 µM | KM-20L2 > 31.6 µM | LXFL 529 15.1 µM | M19-MEL 30 µM | XF498 6.19 µM

COC[C@@H]1Cc2cc(OC)c3c(c2[C@H](c2ccc(OC)c(OC)c2)[C@H]1COC)OCO3 [HYPOPHYLLANTHIN]
inactive: DLD-1 47.3 µM | DMS-114 > 100 µM | DMS-273 > 100 µM | HOP-18 > 100 µM | KM-20L2 > 100 µM | LXFL 529 > 100 µM | M19-MEL > 100 µM | RXF 631 > 100 µM | XF498 19.1 µM
